Values after ≈ are worked out from the molar mass of the structure shown. Read-outs that look alike come from different tables or passages of the source.
Assays:
[1] = tested on: CLBL-1 cell line (canine B-cell lymphoma); assay: MTT assay, antiproliferative activity against CLBL-1; assay type: cell-based; settings: for IC50: Canis lupus familiaris, CLBL-1, 72 h of exposure, MTT, mean ± SD; for SI CLBL-1: ratio IC50 NIH/3T3 / IC50 CLBL-1
Text: (§1) The CLB70 cell line (canine chronic B-cell lymphocytic leukemia) was established at the Department of Pharmacology and Toxicology, Wrocław University of Environmental and Life Sciences. The CLBL-1 cell line (canine B-cell lymphoma) was kindly provided by Dr. Barbara C. Rütgen from the Institute of Immunology, Department of Pathobiology, University of Veterinary Medicine, Vienna. The T-24 (human bladder carcinoma), Caco-2 (human colorectal adenocarcinoma), and NIH/3T3 (mouse embryonic fibroblasts) cell lines were purchased from the American Type Culture Collection (ATCC, Rockville, MD, USA).
(§2) Cell cultures were maintained in their respective growth media, with fetal bovine serum (FBS) concentrations ranging from 10% to 20%, depending on the cell line. Penicillin-streptomycin (PS) and L-glutamine (L-Glu) were consistently added at 1% each to all media. CLB70 cells were cultured in RPMI ADVANCE medium supplemented with 20% FBS, while CLBL-1 cells were maintained in RPMI-1640 medium with 20% FBS. T-24 cells were cultured in McCoy′s 5A medium with 10% FBS, and Caco-2 cells in Eagle′s Minimum Essential Medium (EMEM) with 20% FBS. NIH/3T3 cells were maintained in high-glucose DMEM (DMEM HG) with 10% FBS. All cell cultures were grown in T-75 flasks under a humidified atmosphere at 37 °C and 5% CO2 and passaged every 3 days to maintain optimal cell density (70–80% confluence).
(§3) Stock solutions used in the experiments were freshly prepared for each trial by dissolving the tested compounds in biological-grade DMSO. These stock solutions were then diluted with the culture medium appropriate for each specific cell line to achieve the desired final concentrations, which ranged from 3.125 to 100 µM. The final DMSO concentration in each well was maintained below 1%, a level generally considered non-toxic to cells. The MTT assay was employed to evaluate the antiproliferative and cytotoxic effects of the compounds on cancer cell lines, following a previously described protocol with minor modifications. Cells were seeded in 96-well plates at the following densities: 1.5 × 10^4 cells/mL (NIH/3T3), 2 × 10^4 cells/mL (T-24, Caco-2), and 3 × 10^5 cells/mL (CLB70, CLBL-1). Each plate included control wells with untreated cells and wells with vehicle controls (culture medium specific to each cell line).
(§4) After 72 h of treatment with the tested compounds, 10 µL of 3-(4,5-dimethylthiazol-2-yl)-2,5-diphenyltetrazolium bromide (MTT) solution (5 mg/mL) was added to each well. The cells were subsequently incubated with MTT for an additional 3 h to allow the formation of formazan crystals. Following this, 40 µL of lysis buffer (composed of 46 g sodium dodecyl sulfate, 150 mL dimethylformamide, and 183.2 mL Milli-Q water) was added to each well to dissolve the formazan. After a 24 h incubation at room temperature, the optical density (OD) of the resulting formazan product was measured using a spectrophotometric microplate reader (Spark, Tecan, Männedorf, Switzerland) at 570 nm.
(§5) The results were determined from three independent experiments (four wells each) and presented as mean IC50 value ± SD from at least […], each performed in quadruplicate. IC50 values (the concentration of the compound required to inhibit 50% of cell growth) were calculated from dose–response curves.

[2] = tested on: CLB70 cell line (canine chronic B-cell lymphocytic leukemia); assay: MTT assay, antiproliferative activity against CLB70; assay type: cell-based; settings: for IC50: Canis lupus familiaris, CLB70, 72 h of exposure, MTT, mean ± SD; for SI CLB70: ratio IC50 NIH/3T3 / IC50 CLB70
Text: as §1, §2, §3, §4, §5

[3] = tested on: T-24 (human bladder carcinoma); assay: MTT assay, antiproliferative activity against T-24; assay type: cell-based; settings: for antiproliferative activity against T-24 (in words): 72 h, up to 100 µM; for antiproliferative activity against T-24 (in words) / IC50: MTT; for IC50: Homo sapiens, 72 h of exposure, mean ± SD; for SI T-24: ratio IC50 NIH/3T3 / IC50 T-24
Text: as §1, §2, §3, §4, §5

[4] = tested on: CaCo-2 (human colorectal adenocarcinoma); assay: MTT assay, antiproliferative activity against CaCo-2; assay type: cell-based; settings: for antiproliferative activity against CaCo-2 (in words): 72 h, up to 100 µM; for antiproliferative activity against CaCo-2 (in words) / IC50: MTT; for IC50: Homo sapiens, Caco-2, 72 h of exposure, mean ± SD; for SI CaCo-2: ratio IC50 NIH/3T3 / IC50 CaCo-2
Text: as §1, §2, §3, §4, §5

[5] = tested on: NIH/3T3 (mouse embryonic fibroblasts); assay: MTT assay, normal cell line NIH/3T3; assay type: cell-based; settings: NIH3T3, 72 h of exposure
Text: as §1, §2, §3, §4, §5

[6] = Quantitative hemolysis assay on red blood cells; assay type: cell-based; settings: human, pH 7.4; 72 h incubation, highest concentration (200 μM)
Method: To evaluate the hemolytic activity and cytotoxicity of the tested compounds, a quantitative hemolysis assay was conducted using human red blood cells (RBCs), following the method described by Pruchnik et al., with minor modifications.
RBCs were obtained from healthy donors through the Blood Donation Center in Wrocław. […] The collected RBCs were gently resuspended and washed three times with cold isotonic phosphate-buffered saline (PBS, pH 7.4) to remove plasma and cellular debris.
All tested compounds were dissolved in biological-grade DMSO. A series of working solutions was prepared by diluting the stock solutions to final concentrations of 6.25, 12.50, 25, 50, 100, and 200 μM. […] Control samples contained no tested compounds, while vehicle control samples contained DMSO at the same concentration as the treated samples. Positive control samples (A100%) were prepared by inducing complete hemolysis with Milli-Q water. All experiments were performed in triplicate, with three independent replicates for each condition.
The erythrocyte suspension was adjusted to a final hematocrit of 1.2% in all test tubes, with a total sample volume of 1 mL. Samples were incubated at 37 °C under static conditions for 2, 24, and 72 h to assess both short- and long-term cytotoxic effects.
Following incubation, all samples were centrifuged at 5000 rpm for 3 min at room temperature. The supernatants were carefully transferred to a 96-well plate, and the absorbance of free hemoglobin was measured at 540 nm using a UV-Vis microplate spectrophotometer (EPOCH, BioTek, Santa Clara, CA, USA). The degree of in vitro hemolysis was calculated based on the amount of released hemoglobin relative to that in the completely hemolyzed positive control sample, according to the following formula: H[%]=As/A100%×100%, where H [%] is the percentage of erythrocyte hemolysis, As is absorbance of hemoglobin in supernatant at 540 nm, and A100% refers to the absorbance of hemoglobin in the supernatant following complete hemolysis of the erythrocytes.

[7] = tested on: CLB-70 line; settings: cited from earlier work
[8] = tested on: T-24 cell line; design: method as in earlier work; settings: 48 h of incubation; cited from earlier work
[9] = tested on: Caco-2 line; design: method as in PMID 33198146; settings: 48 h of incubation; cited from earlier work
[10] = tested on: CLBL-1; settings: 72 h of incubation; cited from earlier work

Compound: COc1cc([C@H]2CC(=O)O[C@@H](C)[C@@H]2Cl)ccc1O (racemic) [12b, 5-t-Chloro-4-r-(4′-Hydroxy-3′-methoxyphenyl)-6-c-methyltetrahydropyran-2-one]
- IC50 [1]: 85.7 ± 15.7 µM
- SI CLBL-1 [1]: >1.2
- IC50 [2]: 71.2 ± 11.6 µM
- SI CLB70 [2]: >1.4
- antiproliferative activity against T-24 (in words) [3]: inactive
- IC50 [3]: > 100 µM
- antiproliferative activity against CaCo-2 (in words) [4]: moderate activity
- IC50 [4]: 72.5 ± 19.8 µM
- SI CaCo-2 [4]: >1.4
- IC50 [5]: > 100 µM
- hemolysis at 72 h, 200 µM [6]: 10.5%

Compound: COc1cc([C@@H]2CC(=O)O[C@@H]2C(C)I)ccc1O (relative stereo) [10a, Cis-4-(4′-Hydroxy-3′-methoxyphenyl)-5-(1-iodoethyl)dihydrofuran-2-one]
- IC50 [1]: 73.6 ± 8.8 µM
- SI CLBL-1 [1]: >1.4
- IC50 [2]: 69.7 ± 13.7 µM
- SI CLB70 [2]: >1.4
- antiproliferative activity against T-24 (in words) [3]: demonstrated activity
- IC50 [3]: 98.1 ± 10.4 µM
- SI T-24 [3]: >1.0
- IC50 [4]: > 100 µM
- IC50 [5]: > 100 µM

Compound: COc1cc([C@@H]2CC(=O)O[C@H]2C(C)I)ccc1O (relative stereo) [10b, Trans-4-(4′-Hydroxy-3′-methoxyphenyl)-5-(1-iodoethyl)dihydrofuran-2-one]
- IC50 [1]: 46.3 ± 4.1 µM
- SI CLBL-1 [1]: >2.2
- IC50 [2]: 71.5 ± 7.5 µM
- SI CLB70 [2]: >1.4
- antiproliferative activity against T-24 (in words) [3]: demonstrated activity
- IC50 [3]: 63.4 ± 6.2 µM
- SI T-24 [3]: >1.6
- IC50 [4]: > 100 µM
- IC50 [5]: > 100 µM
- hemolysis at 72 h, 200 µM [6]: 11%

Compound: COc1cc([C@@H]2CC(=O)O[C@@H]2C(C)Br)ccc1O (relative stereo) [11a, Cis-5-(1-Bromoethyl)-4-(4′-hydroxy-3′-methoxyphenyl)dihydrofuran-2-one]
- IC50 [1]: 63.2 ± 1.6 µM
- SI CLBL-1 [1]: >1.6
- IC50 [2]: 76.2 ± 5.3 µM
- SI CLB70 [2]: >1.3
- antiproliferative activity against T-24 (in words) [3]: inactive
- IC50 [3]: > 100 µM
- antiproliferative activity against CaCo-2 (in words) [4]: moderate activity
- IC50 [4]: 76.4 ± 10 µM
- SI CaCo-2 [4]: >1.3
- IC50 [5]: > 100 µM
- hemolysis at 72 h, 200 µM [6]: 10.3%

Compound: COc1cc([C@@H]2CC(=O)O[C@@H]2C(C)Cl)ccc1O (relative stereo) [12a, Cis-5-(1-Chloroethyl)-4-(4′-hydroxy-3′-methoxyphenyl)dihydrofuran-2-one]
- IC50 [1]: 76.7 ± 11.5 µM
- SI CLBL-1 [1]: >1.3
- IC50 [2]: 75.2 ± 6.3 µM
- SI CLB70 [2]: >1.3
- antiproliferative activity against T-24 (in words) [3]: inactive
- IC50 [3]: > 100 µM
- antiproliferative activity against CaCo-2 (in words) [4]: moderate activity
- IC50 [4]: 88.1 ± 4.4 µM
- SI CaCo-2 [4]: >1.1
- IC50 [5]: > 100 µM

Compound: Cc1ccc(C)c([C@H]2CC(=O)O[C@@H](C)[C@@H]2Br)c1 (single isomer, unassigned)
- IC50 ([7]; previously studied analog, reference not given, read-out: IC50 CLB70): 106 µM

Compound: COc1cc(C=O)ccc1O [compound 1, Vanillin]
- IC50 [1]: 72.4 ± 9.4 µM
- SI CLBL-1 [1]: >1.4 ^2
- IC50 [2]: 72.8 ± 2.3 µM
- SI CLB70 [2]: >1.4
- IC50 [3]: 48.5 ± 13.2 µM
- SI T-24 [3]: >2.1
- antiproliferative activity against CaCo-2 (in words) [4]: inactive
- IC50 [4]: > 100 µM
- IC50 [5]: > 100 µM

Compound: COc1cccc2c1C(=O)c1c(O)c3c(c(O)c1C2=O)C[C@@](O)(C(=O)CO)C[C@@H]3O[C@H]1C[C@H](N)[C@H](O)[C@H](C)O1 [doxorubicin]
- IC50 [8]: 60 nM
- IC50 ([7]; 48 h of incubation): 0.07 µM
- IC50 Caco-2 [9]: 2.41 µg/mL (≈ 4.43 µM)
- IC50 [10]: < 90 nM

Source: PMC12609600, “Novel Halolactones Derived from Vanillin: Design, Synthesis, Structural Characterization, and Evaluation of Antiproliferative and Hemolytic Activities” (Molecules, 2025)
